# Results: US20110256121A1, “METHODS AND KITS FOR DIAGNOSING OR MONITORING AUTOIMMUNE AND CHRONIC INFLAMMATORY DISEASES” (THE REGENTS OF THE UNIVERSITY OF MICHIGAN, priority 2008, published 2011)
# Columns and labels:
# T cell genes = details: PHA-stimulated T cells, 2-deoxy-5-azaC
# CD70 expression = CD70 expression on CD4+ cells of PBMCs cultured with lupus medications; type: cell-based, human; details: 1-100 μM, 24 hours, PBMCs with or without PHA
# Protocol: (§1) Cells and cell culture. Peripheral blood mononuclear cells (PBMCs) were isolated by density-gradient centrifugation. T cells were then isolated by E-rosetting (See, e.g., Golbus et al., Clin Immunol Immunopathol 46, 129 (1988)). […] Where indicated, the cells were cultured in RPMI 1640/10% fetal calf serum (FCS) supplemented with interleukin-2 (IL-2) (See, e.g., Richardson et al., Clin Immunol Immunopathol 55, 368 (1990)), in round-bottomed 5-ml culture tubes (Falcon). Cells were stimulated with 1 μg/ml of PHA (Remel) for 16 hours, then cultured in 24-well plates at a density of 1×10^6 for an additional 72 hours in the presence of 2-deoxy-5-azaC or 5-azaC (Sigma-Aldrich), procainamide (Sigma-Aldrich), hydralazine (Sigma-Aldrich), or the MEK inhibitors U0126 (Promega) or PD98059 (Promega). In other studies, PHA-stimulated PBMCs were cultured in RPMI 1640/10% FCS and treated with indomethacin, chloroquine, hydrocortisone, and 6-mercaptopurine (6-MP) (all from Sigma-Aldrich). TT48E, a cloned, CD4+, tetanus toxoid-reactive human T cell line, was cultured as previously described (Cornacchia et al., J Immunol 140, 2197 (1988); Richardson et al., Arthritis Rheum 35, 647 (1992)).
# (§2) Flow cytometric analysis. The following fluorochrome-conjugated monoclonal antibodies were obtained from BD PharMingen (San Diego, Calif.): FITC-conjugated anti-human CD70, CD2, or isotype-matched controls; phycoerythrin (PE)-conjugated anti-CD2, CD4, and CD8; and CyChromeconjugated anti-HLA-DR, CD2, and isotype controls. Staining and multicolor flow cytometric analysis were performed (See, e.g., Hale et al., Cell Immunol 220, 51 (2002)) using saturating concentrations of antibody.
# CD70 mRNA = test: CD70 transcripts by real time RT-PCR in anti-CD3 + anti-CD28 stimulated CD4+ T cells; type: cell-based, human; details: 5 μm 5-azaC, 50 μm Pca, 20 μm Hyd, 40 μm U0126, 25 μm PD98059, 3 days
# Protocol: (§3) In other studies, T cells were isolated by negative selection using magnetic beads and instructions provided by the manufacturer (Pan T cell Isolation Kit, Miltenyi), and the CD4+ or CD8+ subset was similarly isolated by magnetic cell sorting. Jurkat cells (E6-1) were cultured as previously described (See, e.g., Cornacchia et al., J Immunol 140:2197 (1998)). Purified human CD4+ T cells were first stimulated with plate bound anti-CD3 and soluble anti-CD28. Briefly, 24 well plates were coated with 300 μl of anti-CD3 (10 μg/ml in PBS—SouthernBiotech) 18 hours 4° C., washed, then 2×10^6 purified T cells were added to the wells in 2 ml RPMI 1640/10% FCS containing 2 μg/ml anti-CD28 (SouthernBiotech). The plates were incubated 37° C. in a humidified atmosphere containing 5% CO2 for 18-24 hours, then treated with 5 μm 5-azaC (Aldrich), 50 μm Pca (Sigma), 20 μm Hyd (Aldrich), 40 μm UO126 (Promega) or 25 μm PD98059 (Promega), and cultured for 3 additional days as described (See, e.g., Oelke et al., Arthritis Rheum 50:1850 (2004)).
# T cell CD70 expression = test: CD70 expression on PHA-stimulated T cells by flow cytometry; type: cell-based, human; details: for CD70 expression on treated vs untreated PHA-stimulated T cells: unfractionated T cells, 3 days, 1 μM 5-azaC, dose-response for procainamide, PD98059, U0126
# Protocol: as §1, §2
# The panel of inhibitors used included 5-azaC, an irreversible DNA methyltransferase inhibitor (See, e.g., Glover and Leyland-Jones, Cancer Treat Rep 71, 959 (1987)) procainamide, a competitive DNA methyltransferase inhibitor (See e.g., Scheinbart et al., J Rheumatol 18, 530 (1991)), and the ERK pathway inhibitors PD98059, U0126, and hydralazine.
# Studies were performed examining the effects of the DNA methylation inhibitors on CD70 expression in CD4+ and CD8+ T cell subsets.
# CD70 promoter = test: Bisulfite sequencing of the CD70 promoter in CD4+ T cells; type: cell-based, human; details: for methylation of the 10 CG pairs between −515 and −423 of the CD70 promoter: anti-CD3 and anti-CD28 stimulated CD4+ T cells vs stimulated untreated controls
# Protocol: as §3
# Bisulfite sequencing. The putative CD70 promoter was identified using the published CD70 cDNA sequence and Tfsitescan software. Deoxycytosine (dC) and deoxymethylcytosine (d^mC) bases in the gene promoter and 5′ flanking sequences were identified by bisulfite treatment of purified DNA followed by nested PCR amplification of 3 sequential fragments to span the entire region. The primers were designed to avoid CG pairs and to account for the conversion of dC to dU by the bisulfite. EcoRI sites were added to the forward primers, and XbaI to the reverse, to facilitate cloning. The amplified fragments were then cloned into PBS+, and 5 clones sequenced for each fragment. The primers used were: […]
# The effect of lupus and DNA methylation inhibitors on a regulatory element in the CD70 promoter was examined. DNA was isolated from the CD4+ T cells of 7 healthy individuals or 6 lupus patients, bisulfite treated, the region from −466-−515, containing 6 CG pairs was amplified by PCR, and 5 fragments sequenced from each individual. The average methylation status of the 6 CG pairs for healthy versus lupus individuals is shown (FIG. 8, NI and Lupus, respectively). CD4+ T cells from 5 individuals were also stimulated with PHA, treated with the irreversible DNA methyltransferase inhibitor 5-azacytidine (5-azaC), and the methylation status of the 6 CG pairs similarly analyzed from the 25 fragments sequenced (FIG. 8, 5-azaC). […] Results are presented as the mean±SEM of the average methylation of the 6 CG pairs, measured from the 10-35 determinations/group.
# The effects of the DNA methylation inhibitors on the methylation status of this region were then compared. […] Again, 5 cloned fragments were sequenced from each control, for a total of 35 determinations per CG pair. […] FIG. 14 compares the average methylation for the 10 CG pairs (−515 to −423) in the T cells treated with DNA methylation inhibitors relative to stimulated, untreated controls.
# [1] = target: KIR3DL1 on human T cells (human) (UniProt P43629); test: cell-based or functional assay
# Chain of KIR3DL1 on human T cells (human) (P43629 22-444): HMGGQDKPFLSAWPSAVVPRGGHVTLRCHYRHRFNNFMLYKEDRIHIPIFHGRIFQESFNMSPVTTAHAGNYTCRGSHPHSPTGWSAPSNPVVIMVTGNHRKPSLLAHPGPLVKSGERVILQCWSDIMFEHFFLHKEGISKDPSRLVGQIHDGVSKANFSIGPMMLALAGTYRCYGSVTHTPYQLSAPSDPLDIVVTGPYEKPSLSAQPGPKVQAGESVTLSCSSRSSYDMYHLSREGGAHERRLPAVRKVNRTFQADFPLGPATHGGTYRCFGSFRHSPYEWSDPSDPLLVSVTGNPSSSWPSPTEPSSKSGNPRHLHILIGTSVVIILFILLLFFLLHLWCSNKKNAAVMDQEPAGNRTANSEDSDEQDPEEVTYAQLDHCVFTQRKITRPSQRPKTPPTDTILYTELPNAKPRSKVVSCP
molecule,measurement,setting,value
Nc1ncn([C@H]2C[C@H](O)[C@@H](CO)O2)c(=O)n1 [2-deoxy-5-azaC],CD70 expression increase in treated cells relative to untreated controls,"T cell genes; 3 days, oligonucleotide arrays, mean±SEM, 2 independent experiments",2.6±0.6 fold
same,genes decreased ≧2-fold,T cell genes; treated vs untreated,12 genes
same,genes reproducibly increased ≧2-fold,T cell genes; treated vs untreated,118 genes
"Sc1ncnc2nc[nH]c12 [6-MP, 6-mercaptopurine]",CD70 expression on stimulated or unstimulated CD4+ cells,CD70 expression,No increase in CD70 expression was seen
COc1cccc(-c2cc(=O)c3ccccc3o2)c1N [PD98059],"CD70 transcripts relative to β-actin, treated vs untreated",CD70 mRNA,increase CD70 transcripts
same,increase of CD70 MFI on CD4+ T cells,"T cell CD70 expression; 25 μM PD98059, n=3, P=0.032",1.63±0.43 fold
same,CD70 expression on CD4+ T cells,T cell CD70 expression,increased CD70 expression on CD4+ T cells
same,CD70 expression on treated vs untreated PHA-stimulated T cells,T cell CD70 expression,increase in CD70 expression with treatment
same,methylation of the 10 CG pairs between −515 and −423 of the CD70 promoter,CD70 promoter,appears to demethylate
CCN(CC)CCCC(C)Nc1ccnc2cc(Cl)ccc12 (stereo not drawn) [chloroquine],CD70 expression on stimulated or unstimulated CD4+ cells,CD70 expression,No increase in CD70 expression was seen
C[C@]12CCC(=O)C=C1CC[C@@H]1[C@@H]2[C@@H](O)C[C@@]2(C)[C@H]1CC[C@]2(O)C(=O)CO [hydrocortisone],CD70 expression on stimulated or unstimulated CD4+ cells,CD70 expression,No increase in CD70 expression was seen
COc1ccc2c(c1)c(CC(=O)O)c(C)n2C(=O)c1ccc(Cl)cc1 [indomethacin],CD70 expression on stimulated or unstimulated CD4+ cells,CD70 expression,No increase in CD70 expression was seen
CCN(CC)CCNC(=O)c1ccc(N)cc1 [procainamide],"CD70 transcripts relative to β-actin, treated vs untreated",CD70 mRNA,increase CD70 transcripts
same,CD70 expression on CD4+ T cells,T cell CD70 expression,increased CD70 expression on CD4+ T cells
same,CD70 expression on treated vs untreated PHA-stimulated T cells,T cell CD70 expression,increase in the ratio of the mean fluorescence intensity (MFI) of CD70 expression
same,methylation of the CD70 promoter region −466-−515 (6 CG pairs),CD70 promoter; PHA-stimulated CD4+ T cells,demethylate this region
same,methylation of the 10 CG pairs between −515 and −423 of the CD70 promoter,CD70 promoter,appears to demethylate
anti-NKB1 (KIR3DL1) antibody (BD PharMingen),% cytotoxicity (51Cr release from autologous monocytes/macrophages) (% cytotoxicity),[1],37
